Test results from ChEMBL document CHEMBL4725309, “Potent, non-covalent reversible BTK inhibitors with 8-amino-imidazo[1,5-a]pyrazine core featuring 3-position bicyclic ring substitutes” (Bioorg Med Chem Lett, 2020).

Tests used:
[1] = target: T1, Tyrosine-protein kinase BTK (Homo sapiens, UniProt Q06187); assay: Inhibition of BTK in human PBMC assessed as reduction in cell surface CD69 expression preincubated for 1 hr followed by stimulation with goat anti-human IgM F(ab')2 for 18 hrs by immunostaining analysis; assay type: tissue-based
T1 sequence (Q06187 whole entry): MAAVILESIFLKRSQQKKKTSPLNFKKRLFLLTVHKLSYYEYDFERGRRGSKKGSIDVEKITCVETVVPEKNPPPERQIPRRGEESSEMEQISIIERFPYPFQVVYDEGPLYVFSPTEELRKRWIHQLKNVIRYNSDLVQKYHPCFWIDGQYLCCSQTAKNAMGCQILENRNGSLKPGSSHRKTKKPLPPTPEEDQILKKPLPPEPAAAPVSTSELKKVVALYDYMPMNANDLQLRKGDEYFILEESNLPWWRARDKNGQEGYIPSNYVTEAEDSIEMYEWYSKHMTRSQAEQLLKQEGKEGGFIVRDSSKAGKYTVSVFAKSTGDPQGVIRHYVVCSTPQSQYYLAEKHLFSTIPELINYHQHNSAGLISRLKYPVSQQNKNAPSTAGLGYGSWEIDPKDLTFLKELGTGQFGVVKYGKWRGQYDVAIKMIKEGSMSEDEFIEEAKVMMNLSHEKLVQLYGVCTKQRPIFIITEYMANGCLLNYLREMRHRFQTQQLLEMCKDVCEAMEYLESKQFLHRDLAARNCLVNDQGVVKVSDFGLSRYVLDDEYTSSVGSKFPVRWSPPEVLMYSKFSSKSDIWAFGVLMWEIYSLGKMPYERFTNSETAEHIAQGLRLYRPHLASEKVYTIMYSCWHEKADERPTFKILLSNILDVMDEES

[2] = target: T1, Tyrosine-protein kinase BTK; assay: Inhibition of BTK in human whole blood assessed as reduction in cell surface CD69 expression preincubated for 1 hr followed by stimulation with anti-CD79b for 3 hrs by immunostaining analysis; assay type: tissue-based
[3] = target: T1, Tyrosine-protein kinase BTK; assay: Inhibition of recombinant full length BTK (unknown origin) expressed in baculovirus infected Sf9 cells using Biotin-EQEDEPEGDYFEWLE-NH2 peptide as substrate incubated for 60 mins followed by further incubation with substrate and ATP for 120 mins by TR-FRET assay

SMILES | IC50 [1] [nM] | IC50 [2] [nM] | IC50 [3] [nM]
Nc1nccn2c([C@@H]3CC[C@H]4COCC(=O)N4C3)nc(-c3ccc(C(=O)Nc4cc(C(F)(F)F)ccn4)cc3F)c12 | 5.8 | 78 | 0.1
Nc1nccn2c([C@@H]3CC[C@H]4CCC(=O)N4C3)nc(-c3ccc(C(=O)Nc4cc(C(F)(F)F)ccn4)cc3C(F)(F)F)c12 | > 3000 | – | > 1000
Nc1nccn2c([C@@H]3CC[C@H]4CCCC(=O)N4C3)nc(-c3ccc(C(=O)Nc4cc(C(F)(F)F)ccn4)cc3F)c12 | 39 | – | –
CC(C)Oc1cc(C(=O)Nc2cc(C(F)(F)F)ccn2)ccc1-c1nc([C@@H]2CC[C@H]3CCC(=O)N3C2)n2ccnc(N)c12 | 41 | – | –
Nc1nccn2c([C@H]3CN4C(=O)CC[C@@H]4CO3)nc(-c3ccc(C(=O)Nc4cc(C(F)(F)F)ccn4)cc3)c12 | 7.2 | 263 | –
C[C@H]1OC(=O)N2C[C@H](c3nc(-c4ccc(C(=O)Nc5cc(C(F)(F)F)ccn5)cc4)c4c(N)nccn34)CC[C@@H]12 | 3.2 | 63 | –
CN1C[C@@H]2CC[C@@H](c3nc(-c4ccc(C(=O)Nc5cc(C(F)(F)F)ccn5)cc4)c4c(N)nccn34)CN2C1=O | 403 | – | –
NC(=O)c1cc(C(=O)Nc2cc(C(F)(F)F)ccn2)ccc1-c1nc([C@@H]2CC[C@H]3CCC(=O)N3C2)n2ccnc(N)c12 | > 3000 | – | –
Nc1nccn2c([C@@H]3CC[C@H]4CCC(=O)N4C3)nc(-c3ccc(C(=O)Nc4cc(C(F)(F)F)ccn4)cc3OC(F)F)c12 | 20 | 415 | –
Nc1nccn2c([C@@H]3CC[C@H]4CCC(=O)N4C3)nc(-c3ccc(C(=O)Nc4cc(C(F)(F)F)ccn4)cc3Oc3ccccc3)c12 | 310 | – | 11
CCOc1cc(C(=O)Nc2cc(C(F)(F)F)ccn2)ccc1-c1nc([C@@H]2CC[C@H]3CCC(=O)N3C2)n2ccnc(N)c12 | 10 | 92 | –
